Common to all, as to experiment: cAMP accumulation
Assay type in all cases: cell-based
Common to all, as to details: cAMP maximal response, mean ± S.E.M., SEM
For orientation: Cyclic AMP is a second messenger, typically raised through Gs and lowered through Gi signalling.

For one assay, the target named is T1, hCTR F285A (Homo sapiens, UniProt P30988, F285A).
T1 construct: expressed in transfected cells
T1 sequence (P30988 25-474 F285A): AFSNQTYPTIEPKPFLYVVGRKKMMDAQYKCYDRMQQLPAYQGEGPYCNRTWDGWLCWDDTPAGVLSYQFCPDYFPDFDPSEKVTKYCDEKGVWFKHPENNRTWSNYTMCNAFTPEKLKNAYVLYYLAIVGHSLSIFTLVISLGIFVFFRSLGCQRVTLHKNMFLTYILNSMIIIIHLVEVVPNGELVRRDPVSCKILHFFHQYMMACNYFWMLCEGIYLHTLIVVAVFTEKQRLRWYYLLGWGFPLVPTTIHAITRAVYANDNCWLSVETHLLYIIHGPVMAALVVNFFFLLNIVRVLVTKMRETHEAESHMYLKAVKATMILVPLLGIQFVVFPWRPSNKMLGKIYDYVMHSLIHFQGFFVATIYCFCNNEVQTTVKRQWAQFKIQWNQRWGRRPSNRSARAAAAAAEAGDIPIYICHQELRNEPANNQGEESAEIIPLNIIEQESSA
In a few lines:
(§1)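 Concentration-response curves, fitted to a 3-parameter logistic equation, gave EC50 and Emax; these reflect functional affinity, efficacy and stimulus-response coupling combined. Stimulation lasted 30 min with IBMX, and data were scaled to the 100 μM forskolin response.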

A further assay has as its target T2, hCTR H296A (Homo sapiens, UniProt P30988, H296A).
T2 construct: c-Myc (N); expressed in transfected cells
T2 sequence (P30988 25-474 H296A): T1 sequence (P30988 25-474 F285A) with A261F, H272A
The essentials:
as §1

A further assay addresses T3, hCTR N288A (Homo sapiens, UniProt P30988, N288A).
T3 construct: expressed in transfected cells
T3 sequence (P30988 25-474 N288A): T1 sequence (P30988 25-474 F285A) with A261F, N264A
The essentials:
as §1

The target in another assay is T4, hCTR N365A (Homo sapiens, UniProt P30988, N365A).
T4 construct: c-Myc (N); expressed in transfected cells
T4 sequence (P30988 25-474 N365A): T1 sequence (P30988 25-474 F285A) with A261F, N341A
In a few lines:
as §1

The next assay has as its target T5, hCTR V293A (Homo sapiens, UniProt P30988, V293A).
T5 construct: c-Myc (N); expressed in transfected cells
T5 sequence (P30988 25-474 V293A): T1 sequence (P30988 25-474 F285A) with A261F, V269A
The essentials: as §1

Where a chain is given by its changes, count along the chain named.

Usually Emax stands for the maximal effect, on the per cent scale that the assay sets. For the molecule `CC(C)C[C@H](NC(=O)[C@H](CCCCN)NC(=O)CNC(=O)[C@H](CC(C)C)NC(=O)[C@@H](NC(=O)[C@@H]1CSSC[C@H](N)C(=O)N[C@@H](CO)C(=O)N[C@@H](CC(N)=O)C(=O)N[C@@H](CC(C)C)C(=O)N[C@@H](CO)C(=O)N[C@@H]([C@@H](C)O)C(=O)N1)C(C)C)C(=O)N[C@@H](CO)C(=O)N[C@@H](CCC(N)=O)C(=O)N[C@@H](CCC(=O)O)C(=O)N[C@@H](CC(C)C)C(=O)N[C@@H](Cc1c[nH]cn1)C(=O)N[C@@H](CCCCN)C(=O)N[C@@H](CC(C)C)C(=O)N[C@@H](CCC(N)=O)C(=O)N[C@H](C(=O)N[C@@H](Cc1ccc(O)cc1)C(=O)N1CCC[C@H]1C(=O)N[C@@H](CCCNC(=N)N)C(=O)N[C@H](C(=O)N[C@@H](CC(N)=O)C(=O)N[C@H](C(=O)NCC(=O)N[C@@H](CO)C(=O)NCC(=O)N[C@H](C(=O)N1CCC[C@H]1C(N)=O)[C@@H](C)O)[C@@H](C)O)[C@@H](C)O)[C@@H](C)O` [sCT], the Emax at hCTR F285A came to 105 ± 8%; on hCTR H296A, 86 ± 5%; on hCTR N288A it was 69 ± 5%; on hCTR N365A, 94 ± 5%; on hCTR V293A, 112 ± 11%.

The values above are taken from paper PMC5908784, “Extracellular loops 2 and 3 of the calcitonin receptor selectively modify agonist binding and efficacy” (Biochemical Pharmacology, 2018).
